Counter-ions that a name gives are not always drawn.
Legend:
Format in all cases: cell-based
TNF-α [1] = experiment: Whole blood cell culture assay, LPS-induced TNF-α release; settings: Homo sapiens, at a concentration of 10 μM, LPS 1 μg/ml, 4.5 hours
Procedure: TNF-α production by lipopolysaccharide (LPS) in whole blood was measured according to the method described in literature (J. Immunol. Methods, 1991, 139, 233-240).
Blood was collected from healthy donors into potassium EDTA vacutainer tubes (Becton Dickinson) and diluted with RPMI (Roswell Park Memorial Institute) 1640 culture medium (Gibco BRL, Pasley, UK) containing 100 U/ml penicillin and 100 μg/ml streptomycin, (100× solution, Sigma Chemical Co. St Louis, Mo.) with no added serum. The white blood cell count was adjusted to 1×10^6 cells/ml and 100 it/well of the diluted blood was transferred into 96-well culture plates. Following cell plating, 79 μl of culture medium and 1 μl of the test compounds (final concentration 1 μM and 10 μM) dissolved in DMSO was added to the cells. The final concentration of DMSO was adjusted to 0.5%. 1 μl of vehicle (0.5% DMSO) was used as control. Rolipram (300 μM) was used as a standard compound. The plates were incubated for 30 minutes at 37° C. in an atmosphere of 5% CO2. Finally, 20 μl (10 μg/ml) per well of LPS (Escherchia coli 0127:B8, Sigma Chemical Co. St. Louis, Mo.) was added, for a final concentration of 1 μg/ml. Plates were incubated at 37° C. for 4.5 hours in an atmosphere of 5% CO2. Supernatants were harvested and assayed for TNF-α by ELISA as described by the manufacturer (OptiEIA ELISA sets, BD Biosciences, Pharmingen). Percent inhibition of TNF-α release in comparison to the control was calculated.

IL-1β = experiment: hPBMCs assay, LPS-induced IL-1β; settings: Homo sapiens, LPS 1 μg/ml, 5 hours, ELISA
Procedure: (§1) TNF-α production by lipopolysaccharides (LPS) in hPBMCs was measured according to the method described in literature (Physiol. Res., 2003, 52, 593-598). Blood was collected from healthy donors into Potassium EDTA vacutainer tubes (BD vacutainer). The PBMCs were isolated using gradient centrifugation in Histopaque-1077 solution (Sigma). Isolated PBMC were suspended in RPMI 1640 culture medium (Sigma-Aldrich Fine Chemicals, USA), containing 10% fetal bovine serum (FBS) (JRH, USA), 100 U/ml penicillin (Sigma Chemical Co. St Louis, Mo.) and 100 μg/ml streptomycin (Sigma Chemical Co. St Louis, Mo.). The cell concentration was adjusted to 1×10^6 cells/ml. The viability as determined by trypan blue dye exclusion was uniformly ≧98%. The cell suspension (100 μl) was added to the wells of a 96-well culture plate. Following cell plating, 79 μl of the culture medium and 1 μl of eight different concentrations of the test compounds (final concentration 0.03, 0.1, 0.3, 1, 3, 10, 30, 100 μg/ml) dissolved in DMSO were added to the cells. The final concentration of DMSO was adjusted to 0.5%. The vehicle (0.5 DMSO) was used as control. Rolipram (300 μM) was used as a standard compound. The plates were incubated for 30 minutes at 37° C. in an atmosphere of 5% CO2. Finally, 20 μl (10 μg/ml) per well of LPS, (Escherchia coli 0127:B8, Sigma Chemical Co., St. Louis, Mo.) was added, for a final concentration of 1 µg/ml. The plates were incubated at 37° C. for 5 hours in an atmosphere of 5% CO2. To assess the cytotoxic effect of the test compounds, the cellular viability test was performed using MTS (3-(4,5-dimethylthiazol-2-yl)-5-(3-carboxymethoxyphenyl)-2-(4-sulfonyl)-2H-tetrazolium) reagent after 5 hours of incubation. Supernatants were harvested and assayed for TNF-α, interleukin-1β (IL-1β), interleukin-6 (IL-6) and interleukin-8 (IL-8) by ELISA as described by the manufacturer. (OptiEIA ELISA sets, BD Biosciences, Pharmingen). […]

TNF-α [2] = experiment: hPBMCs assay, LPS-induced TNF-α; settings: Homo sapiens, LPS 1 μg/ml, 5 hours, ELISA
Procedure: as §1

IL-6 = experiment: hPBMCs assay, LPS-induced IL-6; settings: Homo sapiens, LPS 1 μg/ml, 5 hours, ELISA
Procedure: as §1

IL-8 = experiment: hPBMCs assay, LPS-induced IL-8; settings: Homo sapiens, LPS 1 μg/ml, 5 hours, ELISA
Procedure: as §1

Row | IC50 (IL-1β) | IC50 (TNF-α [2]) | IC50 (IL-6) | IC50 (IL-8) | SMILES | inhibition at 10 µM (TNF-α [1])
1 |  |  |  |  | COc1cc(OC)c(C2CCN(C)C2CO)c(O)c1C(=O)C=Cc1ccc(C)o1 (racemic) [Example 45, (+/−)1-(2-Hydroxy-3-(2-(hydroxymethyl)-1-methylpyrrolidin-3-yl)-4,6-dimethoxy-phenyl)-3-(5-methylfuran-2-yl)prop-2-en-1-one] | 54%
2 | 200 nM | 800 nM | 2300 nM | 5200 nM | COc1cc(OC)c(C2CCN(C)C2CO)c(O)c1C(=O)C=Cc1cccc(Br)c1 (racemic) [Example 21, (+/−)3-(3-Bromophenyl)-1-(2-hydroxy-3-(2-(hydroxymethyl)-1-methylpyrrolidin-3-yl)-4,6-dimethoxy-phenyl)prop-2-en-1-one] | 61%
3 |  |  |  |  | COc1cc(OC)c(C2CCN(C)C2CO)c(O)c1C(=O)C=Cc1ccc(F)cc1 (racemic) [Example 29, (+/−)3-(4-Fluorophenyl)-1-(2-hydroxy-3-(2-(hydroxymethyl)-1-methylpyrrolidin-3-yl)-4,6-dimethoxy-phenyl)prop-2-en-1-one] | 31%
4 |  |  |  |  | COc1cc(OC)c(C2CCN(C)C2CO)c(O)c1C(=O)C=Cc1cccnc1 (racemic) [Example 48, (+/−)1-(2-Hydroxy-3-(2-(hydroxymethyl)-1-methylpyrrolidin-3-yl)-4,6-dimethoxy-phenyl)-3-(pyridin-3-yl)prop-2-en-1-one] | 61%
5 |  |  |  |  | COc1cc(OC)c(C2CCN(C)C2CO)c(O)c1C(=O)C=Cc1cccc(C)c1 (racemic) [Example 23, (+/−)1-(2-Hydroxy-3-(2-(hydroxymethyl)-1-methylpyrrolidin-3-yl)-4,6-dimethoxy-phenyl)-3-m-tolylprop-2-en-1-one] | 32%
6 |  |  |  |  | COc1cc(OC)c(C2CCN(C)C2CO)c(O)c1C(=O)C=Cc1ccc(Cl)cc1 (racemic) [Example 28, (+/−)3-(4-Chlorophenyl)-1-(2-hydroxy-3-(2-(hydroxymethyl)-1-methylpyrrolidin-3-yl)-4,6-dimethoxy-phenyl)prop-2-en-1-one] | 30%
7 |  |  |  |  | COc1cc(OC)c(C2CN(C)C(=O)C2CO)c(O)c1C(=O)C=Cc1ccccc1Cl (racemic) [Example 39, (+/−)4-(3-(3-(2-Chlorophenyl)acryloyl)-2-hydroxy-4,6-dimethoxy-phenyl)-3-(hydroxymethyl)-1-methylpyrrolidin-2-one] | 75%
8 | 800 nM | 900 nM | 4900 nM | 6500 nM | COc1cc(OC)c(C2CCN(C)C2CO)c(O)c1C(=O)C=Cc1ccccc1Cl (racemic) [Example 20, (+/−)3-(2-Chlorophenyl)-1-(2-hydroxy-3-(2-(hydroxymethyl)-1-methylpyrrolidin-3-yl)-4,6-dimethoxy-phenyl)prop-2-en-1-one hydrochloride] | 66%
9 | 100 nM | 500 nM | 2500 nM | 5400 nM | COc1cc(OC)c(C2CCN(C)C2CO)c(O)c1C(=O)C=Cc1cccc([N+](=O)[O-])c1 (racemic) [Example 25, (+/−)1-(2-Hydroxy-3-(2-(hydroxymethyl)-1-methylpyrrolidin-3-yl)-4,6-dimethoxy-phenyl)-3-(3-nitrophenyl)prop-2-en-1-one] | 68%
